# Measured values taken from US20050277663A1, “3-Aryl-3-hydroxy-and 3-aryl-3-oxopropionic acid esters as fungicides” (priority 2004, published 2005).
# pIC50: −log10 of the molar value.
# Columns and labels:
# [1] = test system: Alternaria solani on tomato plants; experiment: Alternaria greenhouse study on tomato plants; settings: for control of A. solani (in words): 75 ppm rate; for Average Lesion Size: 6 days after infection
# Method: Tomato plants were inoculated with a conidial suspension (8,000 conidia/ml) of A. solani and maintained in a dew chamber for 24 hours. The plants were subsequently moved to the greenhouse for disease development.
# [2] = test system: Erysiphe graminis on barley plants; experiment: Erysiphe greenhouse study on barley plants; settings: for Average Lesion Number: 5 days after infection
# Septoria tritici = experiment: Microtiter plate fungicidal screening (agar, spore inoculation); assay type: cell-based; settings: fungal growth after 3-5 days at 20° C., C.V. class in parentheses
# Botrytis cinerea = experiment: as above; assay type: cell-based; settings: fungal growth after 3-5 days at 20° C., C.V. class in parentheses, read-out: IC50 B. cinerea
# Phytophthora infestans = experiment: microbe, parasite or virus in culture; assay type: cell-based; settings: for pIC50: Phytophthora infestans, read-out: IC50 P. infestans
# Stagnospora nodorum = experiment: Microtiter plate fungicidal screening (agar, spore inoculation); assay type: cell-based; settings: fungal growth after 3-5 days at 20° C., C.V. class in parentheses; for pIC50: Parastagonospora nodorum, read-out: IC50 S. nodorum
# U. maydis = experiment: as above; assay type: cell-based, Ustilago maydis; settings: Mycosarcoma maydis; fungal growth after 3-5 days at 20° C.; C.V. class in parentheses
smiles,measurement,setting,value
"CO/C=C(/C(=O)OC)c1ccccc1Oc1cc(Oc2ccccc2C#N)ncn1 [Azoxystrobin, azoxystrobin]",control of A. solani (in words),[1],slightly less control
same,Average Lesion Size,[1]; 75 ppm,A (A = 0-10)
same,control of A. solani,[1]; 300 ppm rate,~100%
same,Average Lesion Size,[1]; 300 ppm,A (A = 0-10)
"N#Cc1c(Cl)c(Cl)c(Cl)c(C#N)c1Cl [Chlorothalonil, chlorothalonil]",Average Lesion Size,[1]; 1250 ppm,A (A = 0-10)
same,Average Lesion Size,[1]; 5000 ppm,A (A = 0-10)
same,control of E. graminis (in words),[2]; high rate,marginal level of control
same,Average Lesion Number,"[2]; inoculated data set, 1250 ppm",B (B = 51-100)
same,Average Lesion Number,"[2]; inoculated data set, 5000 ppm",D (D = +150)
same,Average Lesion Number,"[2]; uninoculated data set, 1250 ppm",B (B = 11-20)
same,Average Lesion Number,"[2]; uninoculated data set, 5000 ppm",C (C = 21-30)
"O=C(OCc1cccc(C(F)(F)F)c1)C(CSc1nccs1)C(O)c1cccnc1 (stereo not drawn) [Compound 5, 3-(Trifluoromethyl)phenylmethyl β-hydroxy-α-(2-thiazolylthiomethyl)-3-pyridinepropanoate]",IC50 S. tritici,Septoria tritici,A (d)
same,pIC50,Botrytis cinerea,< 4.60
same,pIC50,Phytophthora infestans,< 4.60
same,pIC50,Stagnospora nodorum,> 5.30
same,pIC50,U. maydis,< 4.60
"O=C(OCc1cccc(C(F)(F)F)c1)[C@H](c1ccccc1)[C@@H](O)c1cccnc1 [Compound 15, 3-(Trifluoromethyl)phenylmethyl syn-β-hydroxy-α-phenyl-3-pyridinepropanoate]",IC50 S. tritici,Septoria tritici,A (d)
same,pIC50,Phytophthora infestans,< 4.60
same,IC50 S. nodorum,Stagnospora nodorum,A (d)
same,pIC50,U. maydis,< 4.60
"O=C(OCc1ccc(Cl)c(Cl)c1)C(CSc1nc2cccnc2s1)C(O)c1cccnc1 (stereo not drawn) [Compound 16, 3,4-Dichlorophenylmethyl β-hydroxy-α-{2-(thiazolo[5,4-b]pyridine)thiomethyl}-3-pyridinepropanoate]",IC50 S. tritici,Septoria tritici,A (c)
same,pIC50,Phytophthora infestans,< 4.60
same,IC50 S. nodorum,Stagnospora nodorum,A (b)
same,pIC50,U. maydis,< 4.60
"O=C(OCc1cccc(C(F)(F)F)c1)C(Cc1ccco1)C(O)c1cccnc1 (stereo not drawn) [Compound 20, 3-(Trifluoromethyl)phenylmethyl β-hydroxy-α-2-furylmethyl-3-pyridinepropanoate]",pIC50,"Septoria tritici; Zymoseptoria tritici, read-out: IC50 S. tritici",> 5.30
same,pIC50,Botrytis cinerea,< 4.60
same,pIC50,Phytophthora infestans,< 4.60
same,IC50 S. nodorum,Stagnospora nodorum,A (b)
same,pIC50,U. maydis,< 4.60
"O=C(OCc1cccc(C(F)(F)F)c1)C(c1ccccc1Cl)C(O)c1cccnc1 (stereo not drawn) [Compound 21, 3-(Trifluoromethyl)phenylmethyl β-hydroxy-α-2-chlorophenyl-3-pyridinepropanoate]",IC50 S. tritici,Septoria tritici,A (c)
same,pIC50,Botrytis cinerea,< 4.60
same,pIC50,Phytophthora infestans,< 4.60
same,IC50 S. nodorum,Stagnospora nodorum,A (c)
same,control of A. solani (in words),[1],no control
same,Average Lesion Size,[1]; 75 ppm,D (D = +30)
same,Average Lesion Size,[1]; 300 ppm,C (C = 21-30)
same,decrease in lesion counts,"[1]; high rate (300 ppm), activity was not significant",roughly 50%
same,activity against E. graminis (in words),"[2]; both rates (300 and 75 ppm), both uninoculated and inoculated tests",excellent activity
same,Average Lesion Number,"[2]; inoculated data set, 75 ppm",A (A = 0-50)
same,Average Lesion Number,"[2]; inoculated data set, 300 ppm",A (A = 0-50)
same,Average Lesion Number,"[2]; uninoculated data set, 75 ppm",A (A = 0-10)
same,Average Lesion Number,"[2]; uninoculated data set, 300 ppm",A (A = 0-10)
same,pIC50,U. maydis,< 4.60
"CC(C(=O)Oc1ccc(Cl)c(Cl)c1)C(O)c1cccnc1 (stereo not drawn) [Compound 29, 3,4-Dichlorophenyl β-hydroxy-α-methyl-3-pyridinepropanoate]",IC50 S. tritici,Septoria tritici,A (b)
same,pIC50,Botrytis cinerea,< 4.60
same,IC50 P. infestans,"Phytophthora infestans; fungal growth after 3-5 days at 20° C., C.V. class in parentheses",D (d)
same,pIC50,Stagnospora nodorum,4.60 to 4.80
same,pIC50,U. maydis,4.60 to 4.80
"CCCC1COC(Cn2cncn2)(c2ccc(Cl)cc2Cl)O1 (centres unmarked) [Propiconazole, propiconazole]",control of E. graminis,[2]; high (75 ppm) rate,~100%
same,Average Lesion Number,"[2]; inoculated data set, 4.7 ppm",A (A = 0-50)
same,Average Lesion Number,"[2]; inoculated data set, 18.8 ppm",A (A = 0-50)
same,Average Lesion Number,"[2]; inoculated data set, 75 ppm",A (A = 0-50)
same,control of E. graminis (in words),[2]; lower rates (19 and 5 ppm),excellent control
same,Average Lesion Number,"[2]; uninoculated data set, 5 ppm",A (A = 0-10)
same,Average Lesion Number,"[2]; uninoculated data set, 19 ppm",A (A = 0-10)
same,Average Lesion Number,"[2]; uninoculated data set, 75 ppm",A (A = 0-10)
